The record followed here is patent US20260103471A1, “CYCLIC UREA THIAZOLYL COMPOUNDS FOR TREATMENT OF HSV” (Assembly Biosciences, Inc., priority 2022, published 2026).

The test system of one experiment is HSV-2 G strain. Nature of the experiment: HSV-2 Antiviral Assay (Vero cells, cell viability). It is filed as cell-based. The note with it: Human alphaherpesvirus 2, Vero, 120 h, Vero cells, 160 TCID50 HSV-2 G strain, 5 days, cell viability. The gist of the method:
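Antiviral readout is survival of infected Vero cells: after 5 days at 37 °C with 160 TCID50 HSV-2 G strain plus serially diluted compound (8 points, 3-fold, 0.5% DMSO), WST-8 was added for 3 h and absorbance measured at 460/620 nm. Cells seeded at 1.0×10^4 per well.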

The next experiment has as its system HSV-1. Nature of the experiment: HSV-1 Antiviral Assay (Vero cells, cell viability). Format: cell-based. As to conditions: Human alphaherpesvirus 1, 96 h; Vero cells, 80 TCID50 HSV-1, 4 days, cell viability; read-out: HSV-1 EC50. In short, it runs like this: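 Vero cells (2.5×10^3/well) received 8-point 3-fold compound dilutions in 2% FBS medium (0.5% DMSO), then 80 TCID50 HSV-1. After 4 days at 37 °C, cell viability was measured by CellTiter-Glo luminescence.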

Consider `Cc1nc(N2CCCN(c3ccc(-c4cccc5c4cnn5C(C)C)cc3)C2=O)sc1S(N)(=O)=O` [Compound 56], for which the EC50 with HSV-2 G strain and in the experiment on HSV-1 was 100 to 1000 nM in each case.

Take `Cc1nc(N2CCCN(c3ccc(-c4cccc5nn(C(C)C)cc45)cc3)C2=O)sc1S(N)(=O)=O` [Compound 59]: the EC50 in the experiment with HSV-2 G strain and in the experiment on HSV-1 was 1000 to 5000 nM throughout.

As for `Cc1nc(N2CCCN(c3ccc(-c4cccc5c4cnn5CC(C)(C)O)cc3)C2=O)sc1S(N)(=O)=O` [Compound 60], the half-maximal effective concentration (EC50) in the experiment on HSV-2 G strain and with HSV-1 was 1000 to 5000 nM throughout.

For the molecule `Cc1nc(N2CCCN(c3ccc(-c4cccc5ncsc45)cc3)C2=O)sc1S(N)(=O)=O` [Compound 67, 2-(3-(4-(Benzo[d]thiazol-7-yl)phenyl)-2-oxotetrahydropyrimidin-1(2H)-yl)-4-methylthiazole-5-sulfonamide], the concentration for a half-maximal effect (EC50) with HSV-2 G strain and with HSV-1 was less than 100 nM in each case.

In the case of `Cc1nc2cccc(-c3ccc(N4CCCN(c5nc(C)c(S(N)(=O)=O)s5)C4=O)cc3)c2s1` [Compound 68], the EC50 with HSV-2 G strain and in the experiment on HSV-1 was less than 100 nM throughout.

As to `Cc1cc2cccc(-c3ccc(N4CCCN(c5nc(C)c(S(N)(=O)=O)s5)C4=O)cc3)c2s1` [Compound 73], the EC50 in the experiment on HSV-2 G strain and in the experiment on HSV-1 was less than 100 nM each time.

In the case of `Cc1nc(N2CCCN(c3ccc(-c4cccc5[nH]cnc45)cc3)C2=O)sc1S(N)(=O)=O` [Compound 74], the half-maximal effective concentration (EC50) in the experiment with HSV-2 G strain and in the experiment on HSV-1 was 100 to 1000 nM in each case.

On to `Cc1nc(N2CCCN(c3ccc(-c4ccc5ncn(C)c5c4)cc3)C2=O)sc1S(N)(=O)=O` [Compound 75], for which the EC50 with HSV-2 G strain and in the experiment with HSV-1 was 1000 to 5000 nM each time.

Turning to `Cc1nc(N2CCCN(c3ccc(-c4cccc5c4CC(=O)N5C)cc3)C2=O)sc1S(N)(=O)=O` [Compound 77], the EC50 in the experiment on HSV-2 G strain and in the experiment with HSV-1 was 100 to 1000 nM each time.

As to `Cc1nc(N2CCCN(c3ccc(-c4cccc5[nH]c(=O)sc45)cc3)C2=O)sc1S(N)(=O)=O` [Compound 78], the EC50 in the experiment with HSV-2 G strain and with HSV-1 was 100 to 1000 nM in each case.

Take `Cc1nc(N2CCCN(c3ccc(-c4cccc5c4sc(=O)n5C)cc3)C2=O)sc1S(N)(=O)=O` [Compound 79]: the EC50 in the experiment with HSV-2 G strain and in the experiment on HSV-1 was less than 100 nM in each case.

`Cc1nc(N2CCCN(c3ccc(-c4cccc5c4OC(F)(F)O5)cc3)C2=O)sc1S(N)(=O)=O` [Compound 80]: the concentration for a half-maximal effect (EC50) in the experiment on HSV-2 G strain and with HSV-1 was less than 100 nM in each case.

Take `Cc1nc(N2CCCN(c3ccc(-c4cccc5ncccc45)cc3)C2=O)sc1S(N)(=O)=O` [Compound 84]: the EC50 with HSV-2 G strain was less than 100 nM; in the experiment on HSV-1 it was 100 to 1000 nM.

Consider `Cc1nc(N2CCCN(c3ccc(-c4cccc5cnccc45)cc3)C2=O)sc1S(N)(=O)=O` [Compound 85], for which the EC50 in the experiment on HSV-2 G strain and with HSV-1 was less than 100 nM in each case.

For `Cc1nc(N2CCCN(c3ccc(-c4nccc5ccccc45)cc3)C2=O)sc1S(N)(=O)=O` [Compound 86], the EC50 in the experiment on HSV-2 G strain and in the experiment on HSV-1 was 100 to 1000 nM each time.

For `Cc1nc(N2CCCN(c3ccc(-c4nc5ccccc5s4)cc3)C2=O)sc1S(N)(=O)=O` [Compound 88], the EC50 is 1000 to 5000 nM with HSV-2 G strain and 100 to 1000 nM in the experiment on HSV-1.

In the case of `Cc1nc(N2CCCN(c3ccc(-c4nc5ncccc5s4)cc3)C2=O)sc1S(N)(=O)=O` [Compound 89], the EC50 in the experiment on HSV-2 G strain and in the experiment on HSV-1 was 1000 to 5000 nM each time.

In the case of `Cc1nc(N2CCCN(c3ccc(-c4nc5c(F)cccc5s4)cc3)C2=O)sc1S(N)(=O)=O` [Compound 90], the EC50 in the experiment with HSV-2 G strain and in the experiment with HSV-1 was 100 to 1000 nM each time.

For `Cc1nc(N2CCCN(c3ccc(-c4ccccc4F)c(F)c3)C2=O)sc1S(N)(=O)=O` [Compound 95], the EC50 in the experiment on HSV-2 G strain and with HSV-1 was 100 to 1000 nM each time.

For `Cc1nc(N2CCCN(c3ccc(-c4ccccc4F)cc3F)C2=O)sc1S(N)(=O)=O` [Compound 96], the EC50 in the experiment on HSV-2 G strain and in the experiment on HSV-1 was less than 100 nM in each case.

`Cc1nc(N2CCCN(c3ccc(-c4ccccn4)c(F)c3)C2=O)sc1S(N)(=O)=O` [Compound 97]: the EC50 with HSV-2 G strain and with HSV-1 was less than 100 nM throughout.

With `Cc1nc(N2CCCN(c3cc(F)c(-c4ccccn4)cc3F)C2=O)sc1S(N)(=O)=O` [Compound 98], the EC50 in the experiment with HSV-2 G strain and with HSV-1 was less than 100 nM in each case.

For the molecule `Cc1nc(N2CCCN(c3cc(F)c(-c4ccccc4)cc3F)C2=O)sc1S(N)(=O)=O` [Compound 99, 2-(3-(2,5-Difluoro-[1,1′-biphenyl]-4-yl)-2-oxotetrahydropyrimidin-1(2H)-yl)-4-methylthiazole-5-sulfonamide], the concentration giving a half-maximal response (EC50) in the experiment on HSV-2 G strain and in the experiment on HSV-1 was less than 100 nM throughout.

Take `Cc1nc(N2CCCCN(c3ccc(-c4cc(F)ccc4F)cc3)C2=O)sc1S(N)(=O)=O` [Compound 101, 2-(3-(2′,5′-Difluoro-[1,1′-biphenyl]-4-yl)-2-oxo-1,3-diazepan-1-yl)-4-methylthiazole-5-sulfonamide]: the EC50 with HSV-2 G strain and with HSV-1 was less than 100 nM throughout.

Take `Cc1nc(N2CCCCN(c3ccc(-c4ccccc4F)cc3)C2=O)sc1S(N)(=O)=O` [Compound 102]: the EC50 in the experiment on HSV-2 G strain and in the experiment on HSV-1 was less than 100 nM throughout.

Turning to `Cc1nc(N2CCCCN(c3ccc(-c4ccccn4)cc3)C2=O)sc1S(N)(=O)=O` [Compound 103], the EC50 in the experiment with HSV-2 G strain and with HSV-1 was less than 100 nM throughout.

With `Cc1nc(N2CC(C)(C)CN(c3ccc(-c4ccccc4F)cc3)C2=O)sc1S(N)(=O)=O` [Compound 105], the half-maximal effective concentration (EC50) in the experiment with HSV-2 G strain and in the experiment with HSV-1 was less than 100 nM each time.

With `Cc1nc(N2CC3(CC3)CN(c3ccc(-c4cc(F)ccc4F)cc3)C2=O)sc1S(N)(=O)=O` [Compound 110, 2-(7-(2′,5′-Difluoro-[1,1′-biphenyl]-4-yl)-6-oxo-5,7-diazaspiro [2.5]octan-5-yl)-4-methylthiazole-5-sulfonamide], the EC50 in the experiment with HSV-2 G strain and in the experiment with HSV-1 was less than 100 nM throughout.

For the molecule `Cc1nc(N2CC3(CC3)CN(c3ccc(-c4ccnn4C)cc3)C2=O)sc1S(N)(=O)=O` [Compound 113, 4-Methyl-2-(7-(4-(1-methyl-1H-pyrazol-5-yl)phenyl)-6-oxo-5,7-diazaspiro[2.5]octan-5-yl)thiazole-5-sulfonamide], the EC50 with HSV-2 G strain and in the experiment on HSV-1 was 1000 to 5000 nM each time.

`CNS(=O)(=O)c1sc(N2CCCN(c3ccc(-c4cc(F)ccc4F)cc3)C2=O)nc1C` [Compound 116, 2-(3-(2′,5′-Difluoro-[1,1′-biphenyl]-4-yl)-2-oxotetrahydropyrimidin-1(2H)-yl)-N,4-dimethylthiazole-5-sulfonamide]: the EC50 in the experiment on HSV-2 G strain and in the experiment with HSV-1 was less than 100 nM in each case.

Consider `Cc1nc(N2CCCN(c3ccc(-c4cc(F)ccc4F)cc3)C2=O)sc1S(=O)(=O)NC1CC1` [Compound 117], for which the EC50 in the experiment with HSV-2 G strain and in the experiment on HSV-1 was less than 100 nM in each case.

Consider `CNS(=O)(=O)c1sc(N2CCCN(c3ccc(-c4ccccn4)cc3)C2=O)nc1C` [Compound 118], for which the EC50 with HSV-2 G strain and with HSV-1 was less than 100 nM each time.

In the case of `Cc1nc(N2CCCN(c3ccc(-c4ccccn4)cc3)C2=O)sc1S(=O)(=O)NC1CC1` [Compound 119], the EC50 in the experiment on HSV-2 G strain and in the experiment on HSV-1 was less than 100 nM each time.

As for `CNS(=O)(=O)c1sc(N2CCCN(c3ccc(-c4ccccc4F)cc3)C2=O)nc1C` [Compound 120], the concentration giving a half-maximal response (EC50) in the experiment with HSV-2 G strain and with HSV-1 was less than 100 nM throughout.

Turning to `CNS(=O)(=O)c1sc(N2CCCN(c3ccc(-c4cc(F)ccn4)cc3)C2=O)nc1C` [Compound 121], the EC50 in the experiment on HSV-2 G strain and in the experiment with HSV-1 was less than 100 nM in each case.

In the case of `CNS(=O)(=O)c1sc(N2CCCN(c3ccc(-c4ncccc4F)cc3)C2=O)nc1C` [Compound 122], the EC50 in the experiment on HSV-2 G strain and in the experiment on HSV-1 was less than 100 nM each time.

`CNS(=O)(=O)c1sc(N2CCCN(c3ccc(-c4cccc(N)n4)cc3)C2=O)nc1C` [Compound 123]: the EC50 in the experiment with HSV-2 G strain and in the experiment on HSV-1 was less than 100 nM each time.

`CNc1cccc(-c2ccc(N3CCCN(c4nc(C)c(S(=O)(=O)NC)s4)C3=O)cc2)n1` [Compound 124]: the concentration giving a half-maximal response (EC50) in the experiment with HSV-2 G strain and in the experiment with HSV-1 was less than 100 nM throughout.

For the molecule `CNS(=O)(=O)c1sc(N2CCCN(c3ccc(-c4nccs4)cc3)C2=O)nc1C` [Compound 126], the EC50 in the experiment with HSV-2 G strain and in the experiment on HSV-1 was less than 100 nM throughout.

Regarding `Cc1nc(N2CCCN(c3ccc(-c4nccs4)cc3)C2=O)sc1S(=O)(=O)NC1CC1` [Compound 127], the EC50 with HSV-2 G strain and with HSV-1 was less than 100 nM each time.

Consider `CNS(=O)(=O)c1sc(N2CCCN(c3ccc(-c4ccccn4)c(F)c3)C2=O)nc1C` [Compound 128], for which the EC50 with HSV-2 G strain and with HSV-1 was less than 100 nM in each case.

As to `CNS(=O)(=O)c1sc(N2CCCN(c3ccc(-c4ccccc4F)cc3F)C2=O)nc1C` [Compound 130], the EC50 in the experiment with HSV-2 G strain and in the experiment with HSV-1 was less than 100 nM throughout.

As to `Cc1nc(N2CCCN(c3ccc(-c4ccccc4F)cc3F)C2=O)sc1S(=O)(=O)NC1CC1` [Compound 131], the EC50 in the experiment with HSV-2 G strain and with HSV-1 was 100 to 1000 nM in each case.

`CNS(=O)(=O)c1sc(N2CCCN(c3ccc(-c4ccccc4F)c(F)c3)C2=O)nc1C` [Compound 132]: the EC50 in the experiment on HSV-2 G strain was less than 100 nM; in the experiment on HSV-1, 100 to 1000 nM.

With `Cc1nc(N2CCCN(c3ccc(-c4ccccc4F)c(F)c3)C2=O)sc1S(=O)(=O)NC1CC1` [Compound 133], the EC50 in the experiment on HSV-2 G strain and in the experiment on HSV-1 was less than 100 nM in each case.

`CNS(=O)(=O)c1sc(N2CCCCN(c3ccc(-c4ccccn4)cc3)C2=O)nc1C` [Compound 138]: the EC50 in the experiment on HSV-2 G strain and in the experiment with HSV-1 was less than 100 nM each time.

Regarding `Cc1nc(N2CC3(CC3)CN(c3ccc(-c4cc(F)ccc4F)cc3)C2=O)sc1S(C)(=N)=O` (stereo not shown) [Compound 155], the EC50 in the experiment with HSV-2 G strain and in the experiment on HSV-1 was less than 100 nM throughout.
